The values that follow are results of earlier work, collected in patent publication US8193226B2, “Candesartan cilexetil” (Zhejiang Huahai Pharmaceutical Co., Ltd., priority 2007, dated 2012).

Assay in data set [1]: not given
This is another data set of the same source.

Assay in data set [2]: not given
This is another data set of the same source.

Read-outs that look alike come from different tables or passages of the source.

For `CCOc1nc2cccc(C(=O)OC(C)OC(=O)OC3CCCCC3)c2n1Cc1ccc(-c2ccccc2-c2nn[nH]n2)cc1` (stereo not drawn) [candesartan cilexetil], for the setting “in the presence of other pharmaceutically acceptable additives, or at granulation or tableting”, the “stability when processed into a tablet” value is listed as “tends to decompose”. Besides, under “isolated form, exposed to increased temperatures, humidity and light”, the “stability of the drug as such” value was “stable”. In addition, in data set [1] (alcoholic solvents), the “solubility in alcoholic solvents” value was “readily soluble”. The solubility in water result in data set [1] (water) is recorded as “practically insoluble”. For the same molecule, the bioavailability in data set [2] (solution) was 40%; in data set [2] (tablet), 15%.
